Assay results as given in patent US20220041616A1, “SPIRO COMPOUND AND MEDICAL USES THEREOF” (The National Institutes of Pharmaceutical R&D Co., Ltd., priority 2018, published 2022).

Target: T1, ACC1 (Homo sapiens, UniProt Q13085)
T1 construct: purchased BPS bioscience
Experiment: In vitro inhibition of ACC1 activity, ADP-Glo Kinase Analysis
Format: biochemical
Settings: 1 nM ACC1, 10 μM acetyl-CoA, 20 μM ATP
From the text: ADP-Glo™ Kinase Analysis Kit (Promega) is used for the in vitro analysis of the inhibitory effect of the present compound on ACC1 or ACC2. ADP-Glo™ Kinase Analysis is a kinase detection analysis of luminescence method. ADP is produced in the process of catalyzing the substrate by ACC. ADP is converted into ATP which is then converted into light by Ultra-Glo™ luciferase. ADP is quantified by detecting the light signal, thus the enzyme activity can be measured by quantification of the ADP amount produced during the enzyme reaction. The analysis is carried out in two steps: in the first step, after the kinase reaction, a portion of ADP-Glo™ reagent equal in volume to the kinase reaction system is added to terminate the reaction and consume the remaining ATP; in the second step, a kinase detection reagent is added, which not only converts ADP into ATP, but also uses a coupled luciferase/luciferin reaction to detect newly synthesized ATP.
a. 10 mM compound stock solution (the present compound was dissolved in 100% DMSO to prepare the 10 mM stock solution) was diluted 50-fold to 200 μM with 100% DMSO, and then diluted in equal proportions (1:3) in a 96-well dilution plate (249944, Nunc). The gradient concentrations of the compound were 200 μM, 66.67 μM, 22.22 μM, 7.41 μM, 2.47 μM, 0.823 μM, 0.274 μM, 0.0914 μM, 0.0305 μM, 0.0102 μM, 0.00339 μM and 0.00113 μM.
b. 4.5 μL ACC1 working solution (BPS bioscience) (2.22 nM) was added to each well of a 384-well test plate (6007290, Perkin Elmer).
c. 0.5 μL of the serially diluted compound (prepared in step a) was added to each well of the 384-well test plate, which was centrifuged at 1000 rpm for 1 min and then incubated at room temperature for 15 min. The reaction system with compound GS-0976 at a final concentration of 0.1 μM was used as positive control; the reaction system with no compound but DMSO at a final concentration of 5% was used as negative control.
d. In the 384-well test plate (prepared in step c), 5 μL of the substrate working solution was added to each well to start the enzymatic reaction. The plate was centrifuged at 1000 rpm for 1 min and then incubated at room temperature for 30 min. The final concentration of each component in the ACC1 reaction system: 1 nM ACC1, 10 μM acetyl-CoA, 30 mM NaHCO3, and 20 μM ATP. The final concentration of each component in the ACC2 reaction system: 1.1 nM ACC2, 20 μM acetyl-CoA, 20 mM NaHCO3, and 15 μM ATP. Final concentrations of test compounds: 10 μM, 3.33 μM, 1.11 μM, 0.37 μM, 0.123 μM, 0.0411 μM, 0.0137 μM, 0.00457 μM, 0.00152 μM, 0.00051 μM, 0.00017 μM and 0.000056 μM. The final concentration of DMSO was 5% (v/v).
e. 10 μL of ADP-Glo reagent was added to each well of the 384-well test plate (prepared in step d), which was centrifuged at 1000 rpm for 1 min and then incubated at room temperature for 40 min.
f. 20 μL of kinase detection reagent was added to each well of the 384-well test plate (prepared in step e), which was centrifuged at 1000 rpm for 1 min and then incubated at room temperature for 40 min.
g. The chemiluminescence signal was detected with Perkin Elmer EnVision 2104.
ACC1 working solution and substrate working solution were both prepared with 1× kinase reaction buffer. The buffer was consisting of 50 mM HEPES buffer, 2 mM magnesium chloride, 0.01% BRIJ-35, 2 mM potassium citrate, 50 μg/mL BSA and 2 mM DTT.
The average value of the positive and negative control well and the standard deviation were calculated. The inhibition percentage was calculated according to the following formula: 100×[1−(compound−average value of positive control)/(average value of negative control-average value of positive control)].
IC50 of the compound was obtained using GraphPad Prism 6 software according to the following nonlinear fitting formula:
Y=Bottom+(Top−Bottom)/(1+10^((Log IC50−X)×Hillslope)), […]

| IC50 [nM] | Compound |
| --- | --- |
| < 10 | COc1ccccc1[C@H](CN1c2sc(-c3ncco3)c(C)c2C(=O)[C@]2(C[C@H](C(=O)OCC(=O)O)C2)C1=O)OC1CCOCC1 [Compound 16, 2-(((1s,3S)-7′-((R)-2-(2-methoxyphenyl)-2-((tetrahydro-2H-pyran-4-yl)oxy)ethyl)-3′-methyl-2′-(oxazol-2-yl)-4′,6′-dioxo-6′,7′-dihydro-4′H-spiro[cyclobutane-1,5′-thieno[2,3-b]pyridine]-3-carbonyl)oxy)acetic Acid] |
| 10 to 100 | COc1ccccc1C(CN1C(=O)C2(CC(C(=O)O)C2)C(=O)c2c1sc(-c1ncco1)c2C)OC1CCOCC1 (single isomer, unassigned) [Compound 8a, 7′-(2-(2-methoxyphenyl)-2-((tetrahydro-2H-pyran-4-yl)oxy)ethyl)-3′-methyl-2′-(oxazol-2-yl)-4′,6′-dioxo-6′,7′-dihydro-4′H-spiro[cyclobutane-1,5′-thieno[2,3-b]pyridine]-3-carboxylic Acid] |
| < 10 | COc1ccccc1[C@H](CN1C(=O)C2(CCN(C(=O)NCC(=O)O)CC2)C(=O)c2c1sc(-c1ncco1)c2C)OC1CCOCC1 [Compound 29, (R)-(7′-(2-(2-methoxyphenyl)-2-((tetrahydro-2H-pyran-4-yl)oxy)ethyl)-3′-methyl-2′-(oxazol-2-yl)-4′,6′-dioxo-6′,7′-dihydro-4′H-spiro[piperidine-4,5′-thieno[2,3-d]pyridine]-1-carbonyl)glycine] |
| < 10 | COC(=O)CNC(=O)[C@H]1C[C@@]2(C1)C(=O)c1c(sc(-c3ncco3)c1C)N(C[C@H](OC1CCOCC1)c1ccccc1OC)C2=O [Compound 10-1, methyl ((1s,3S)-7′-((R)-2-(2-methoxyphenyl)-2-((tetrahydro-2H-pyran-4-yl)oxy)ethyl)-3′-methyl-2′-(oxazol-2-yl)-4′,6′-dioxo-6′,7′-dihydro-4′H-spiro[cyclobutane-1,5′-thieno[2,3-b]pyridine]-3-carbonyl)glycinate] |
| < 10 | COC(=O)[C@@H](C)NC(=O)[C@H]1C[C@@]2(C1)C(=O)c1c(sc(-c3ncco3)c1C)N(C[C@H](OC1CCOCC1)c1ccccc1OC)C2=O [Compound 14-1, Methyl ((1S,3S)-7′-((R)-2-(2-methoxyphenyl)-2-((tetrahydro-2H-pyran-4-yl)oxy)ethyl)-3′-methyl-2′-(oxazol-2-yl)-4′,6′-dioxo-6′,7′-dihydro-4′H-spiro[cyclobutane-1,5′-thieno[2,3-b]pyridine]-3-carbonyl)-D-alaninate] |
| < 10 | COc1ccccc1[C@H](CN1c2sc(-c3ncco3)c(C)c2C(=O)[C@]2(C[C@H](C(=O)N(C)C)C2)C1=O)OC1CCOCC1 [Compound 12] |
| < 10 | COc1ccccc1[C@H](CN1C(=O)C2(CCN(C(=O)NCCO)CC2)C(=O)c2c1sc(-c1ncco1)c2C)OC1CCOCC1 [Compound 33] |
| < 10 | COc1ccccc1[C@H](CN1c2sc(-c3ncco3)c(C)c2C(=O)[C@]2(C[C@H](C(=O)NC(C)(C)C(=O)O)C2)C1=O)OC1CCOCC1 [Compound 11, 2-((1s,3S)-7′-((R)-2-(2-methoxyphenyl)-2-((tetrahydro-2H-pyran-4-yl)oxy)ethyl)-3′-methyl-2′-(oxazol-2-yl)-4′,6′-dioxo-6′,7′-dihydro-4′H-spiro[cyclobutane-1,5′-thieno[2,3-b]pyridine]-3-carboxyamido)-2-methylpropionic Acid] |
| 10 to 100 | COc1ccccc1C(CN1C(=O)C2(CCC(C(=O)O)C2)C(=O)c2c1sc(-c1ncco1)c2C)OC1CCOCC1 (single isomer, unassigned) [Compound 5a, 7′-(2-(2-methoxyphenyl)-2-((tetrahydro-2H-pyran-4-yl)oxy)ethyl)-3′-methyl-2′-(oxazol-2-yl)-4′,6′-dioxo-6′,7′-dihydro-4′H-spiro[cyclopentane-1,5′-thieno[2,3-b]pyridine]-3-carboxylic Acid] |
| 10 to 100 | COc1ccccc1[C@H](CN1C(=O)C2(CCN(C(=O)OC(C)(C)C)CC2)C(=O)c2c1sc(-c1ncco1)c2C)OC1CCOCC1 [Compound 20, tert-butyl (R)-7′-(2-(2-methoxyphenyl)-2-((tetrahydro-2H-pyran-4-yl)oxy)ethyl)-3′-methyl-2′-(oxazol-2-yl)-4′,6′-dione-6′,7′-dihydro-4′H-spiro[piperidine-4,5′-thieno[2,3-d]pyridine]-1-carboxylate] |
| < 10 | COC(=O)C(=O)N1CCC2(CC1)C(=O)c1c(sc(-c3ncco3)c1C)N(C[C@H](OC1CCOCC1)c1ccccc1OC)C2=O [Compound 26, methyl (R)-2-(7′-(2-(2-methoxyphenyl)-2-((tetrahydro-2H-pyran-4-yl)oxy)ethyl)-3′-methyl-2′-(oxazol-2-yl)-4′,6′-dioxo-6′,7′-dihydro-4′H-spiro[piperidine-4,5′-thieno[2,3-d]pyridin]-1-yl)-2-oxoacetate] |
| < 10 | COc1ccccc1[C@H](CN1c2sc(-c3ncco3)c(C)c2C(=O)[C@]2(C[C@H](C(=O)NCCO)C2)C1=O)OC1CCOCC1 [Compound 18, (1s,3S)-N-(2-hydroxyethyl)-7′-((R)-2-(2-methoxyphenyl)-2-((tetrahydro-2H-pyran-4-yl)oxy)ethyl)-3′-methyl-2′-(oxazol-2-yl)-4′,6′-dioxo-6′,7′-dihydro-4′H-spiro[cyclobutane-1,5′-thieno[2,3-b]pyridine]-3-carboxamide] |
| < 10 | COC(=O)N1CCC2(CC1)C(=O)c1c(sc(-c3ncco3)c1C)N(C[C@H](OC1CCOCC1)c1ccccc1OC)C2=O [Compound 28, methyl (R)-7′-(2-(2-methoxyphenyl)-2-((tetrahydro-2H-pyran-4-yl)oxy)ethyl)-3′-methyl-2′-(oxazol-2-yl)-4′,6′-dioxo-6′,7′-dihydro-4′H-spiro[piperidine-4,5′-thieno[2,3-d]pyridine]-1-carboxylate] |
| < 10 | COc1ccccc1[C@H](CN1C(=O)C2(CCNCC2)C(=O)c2c1sc(-c1ncco1)c2C)OC1CCOCC1 [Compound 21, (R)-7′-(2-(2-methoxyphenyl)-2-((tetrahydro-2H-pyran-4-yl)oxy)ethyl)-3′-methyl-2′-(oxazol-2-yl)-4′H-spiro[piperidine-4,5′-thieno[2,3-d]pyridine]-4′,6′(7′H)-dione] |
| < 10 | COc1ccccc1[C@H](CN1c2sc(-c3ncco3)c(C)c2C(=O)[C@]2(C[C@H](C(N)=O)C2)C1=O)OC1CCOCC1 [Compound 17] |
| < 10 | COc1ccccc1[C@H](CN1c2sc(-c3ncco3)c(C)c2C(=O)[C@]2(C[C@H](C(=O)N(C)CC(=O)O)C2)C1=O)OC1CCOCC1 [Compound 15, N-((1s,3S)-7′-((R)-2-(2-methoxyphenyl)-2-((tetrahydro-2H-pyran-4-yl)oxy)ethyl)-3′-methyl-2′-(oxazol-2-yl)-4′,6′-dioxo-6′,7′-dihydro-4′H-spiro[cyclobutane-1,5′-thieno[2,3-b]pyridine]-3-carbonyl)-N-methylglycine] |

| Compound | IC50 [nM] |
| --- | --- |
| 7′-(2-(2-methoxyphenyl)-2-((tetrahydro-2H-pyran-4-yl)oxy)ethyl)-3′-methyl-2′-(oxazol-2-yl)-4′,6′-dioxo-6′,7′-dihydro-4′H-spiro[cyclohexane-1,5′-thieno[2,3-b]pyridine]-3-carboxylic Acid [Compound 7b] | 100 to 500 |
